# Calls of active or inactive are those of the source. How the calls were made is not given here.
# Test system: CCRIS mutagenicity, Ames/micronucleus/aberration tests
# Test: CCRIS mutagenicity studies
# [1] = Test System: AMES SALMONELLA TYPHIMURIUM, Strain/Indicator: TA98, Metabolic Activation: RAT, LIVER, S-9, AROCLOR 1254, Method: STANDARD PLATE
# [2] = Test System: AMES SALMONELLA TYPHIMURIUM, Strain/Indicator: TA100, Metabolic Activation: RAT, LIVER, S-9, AROCLOR 1254, Method: STANDARD PLATE
smiles,measurement,setting,value
O=C(/C=N/O)Nc1ccccc1,mutagenic call,"Test System: AMES SALMONELLA TYPHIMURIUM, Strain/Indicator: TA98, Metabolic Activation: HAMSTER, LIVER, S-9, AROCLOR 1254, Method: STANDARD PLATE",inactive; negative
same,mutagenic call,"Test System: AMES SALMONELLA TYPHIMURIUM, Strain/Indicator: TA98, Metabolic Activation: NONE, Method: STANDARD PLATE",inactive; negative
same,mutagenic call,[1],inactive; negative
same,mutagenic call,"Test System: AMES SALMONELLA TYPHIMURIUM, Strain/Indicator: TA100, Metabolic Activation: HAMSTER, LIVER, S-9, AROCLOR 1254, Method: STANDARD PLATE",inactive; negative
same,mutagenic call,"Test System: AMES SALMONELLA TYPHIMURIUM, Strain/Indicator: TA100, Metabolic Activation: NONE, Method: STANDARD PLATE",inactive; negative
same,mutagenic call,[2],inactive; negative
same,mutagenic call,"Test System: AMES SALMONELLA TYPHIMURIUM, Strain/Indicator: TA1535, Metabolic Activation: HAMSTER, LIVER, S-9, AROCLOR 1254, Method: STANDARD PLATE",inactive; negative
same,mutagenic call,"Test System: AMES SALMONELLA TYPHIMURIUM, Strain/Indicator: TA1535, Metabolic Activation: NONE, Method: STANDARD PLATE",inactive; negative
same,mutagenic call,"Test System: AMES SALMONELLA TYPHIMURIUM, Strain/Indicator: TA1535, Metabolic Activation: RAT, LIVER, S-9, AROCLOR 1254, Method: STANDARD PLATE",inactive; negative
same,mutagenic call,"Test System: AMES SALMONELLA TYPHIMURIUM, Strain/Indicator: TA1537, Metabolic Activation: HAMSTER, LIVER, S-9, AROCLOR 1254, Method: STANDARD PLATE",inactive; negative
same,mutagenic call,"Test System: AMES SALMONELLA TYPHIMURIUM, Strain/Indicator: TA1537, Metabolic Activation: NONE, Method: STANDARD PLATE",inactive; negative
same,mutagenic call,"Test System: AMES SALMONELLA TYPHIMURIUM, Strain/Indicator: TA1537, Metabolic Activation: RAT, LIVER, S-9, AROCLOR 1254, Method: STANDARD PLATE",inactive; negative
same,mutagenic call,"Test System: MOUSE LYMPHOMA, Strain/Indicator: L5178Y (TK+/TK-), Metabolic Activation: RAT, LIVER, S-9, AROCLOR 1254, Method: SUSPENSION/PLATE",inactive; negative. reevaluation of results: negative
same,mutagenic call,"Test System: Mouse lymphoma, Strain/Indicator: L5178Y (tk+/tk-), Metabolic Activation: None, Method: Suspension/plate",active; equivocal (previous evaluation: positive)
Nc1cc2ccc3cccc4ccc(c1)c2c34,mutagenic call,"Test System: AMES SALMONELLA TYPHIMURIUM, Strain/Indicator: TA98, Metabolic Activation: RAT, LIVER, S-9, AROCLOR 1254 (2 OR 4%), Method: STANDARD PLATE",active; positive
same,mutagenic call,"Test System: AMES SALMONELLA TYPHIMURIUM, Strain/Indicator: TA100, Metabolic Activation: RAT, LIVER, S-9, AROCLOR 1254 (2%), Method: STANDARD PLATE",active; positive
same,mutagenic call,"Test System: AMES SALMONELLA TYPHIMURIUM, Strain/Indicator: TA1535, Metabolic Activation: RAT, LIVER, S-9, AROCLOR 1254 (2%), Method: STANDARD PLATE",inactive; negative
same,mutagenic call,"Test System: AMES SALMONELLA TYPHIMURIUM, Strain/Indicator: TA1537, Metabolic Activation: RAT, LIVER, S-9, AROCLOR 1254 (2%), Method: STANDARD PLATE",active; positive
c1ccc2c(c1)cc1ccc3cccc4ncc2c1c34,mutagenic call,[1],active; positive
same,mutagenic call,[2],active; positive
CCC(C)c1ccccc1O (stereo not drawn),mutagenic call,"Test System: AMES SALMONELLA TYPHIMURIUM, Strain/Indicator: TA98, Metabolic Activation: HAMSTER, LIVER, S-9, AROCLOR 1254 (10%), Method: PREINCUBATION",inactive; negative
same,mutagenic call,"Test System: AMES SALMONELLA TYPHIMURIUM, Strain/Indicator: TA98, Metabolic Activation: NONE, Method: PREINCUBATION",inactive; negative
same,mutagenic call,"Test System: AMES SALMONELLA TYPHIMURIUM, Strain/Indicator: TA98, Metabolic Activation: RAT LIVER S-9, PHENOBARBITAL AND BETA-NAPHTHOFLAVONE, Method: PREINCUBATION",inactive; negative
same,mutagenic call,"Test System: AMES SALMONELLA TYPHIMURIUM, Strain/Indicator: TA98, Metabolic Activation: RAT, LIVER, S-9, AROCLOR 1254 (10%), Method: PREINCUBATION",inactive; negative
same,mutagenic call,"Test System: AMES SALMONELLA TYPHIMURIUM, Strain/Indicator: TA100, Metabolic Activation: HAMSTER, LIVER, S-9, AROCLOR 1254 (10%), Method: PREINCUBATION",inactive; negative
same,mutagenic call,"Test System: AMES SALMONELLA TYPHIMURIUM, Strain/Indicator: TA100, Metabolic Activation: NONE, Method: PREINCUBATION",inactive; negative
same,mutagenic call,"Test System: AMES SALMONELLA TYPHIMURIUM, Strain/Indicator: TA100, Metabolic Activation: RAT LIVER S-9, PHENOBARBITAL AND BETA-NAPHTHOFLAVONE, Method: PREINCUBATION",inactive; negative
same,mutagenic call,"Test System: AMES SALMONELLA TYPHIMURIUM, Strain/Indicator: TA100, Metabolic Activation: RAT, LIVER, S-9, AROCLOR 1254 (10%), Method: PREINCUBATION",inactive; negative
same,mutagenic call,"Test System: AMES SALMONELLA TYPHIMURIUM, Strain/Indicator: TA1535, Metabolic Activation: HAMSTER, LIVER, S-9, AROCLOR 1254 (10%), Method: PREINCUBATION",inactive; negative
same,mutagenic call,"Test System: AMES SALMONELLA TYPHIMURIUM, Strain/Indicator: TA1535, Metabolic Activation: NONE, Method: PREINCUBATION",inactive; negative
same,mutagenic call,"Test System: AMES SALMONELLA TYPHIMURIUM, Strain/Indicator: TA1535, Metabolic Activation: RAT LIVER S-9, PHENOBARBITAL AND BETA-NAPHTHOFLAVONE, Method: PREINCUBATION",inactive; negative
same,mutagenic call,"Test System: AMES SALMONELLA TYPHIMURIUM, Strain/Indicator: TA1535, Metabolic Activation: RAT, LIVER, S-9, AROCLOR 1254 (10%), Method: PREINCUBATION",inactive; negative
same,mutagenic call,"Test System: AMES SALMONELLA TYPHIMURIUM, Strain/Indicator: TA1537, Metabolic Activation: HAMSTER, LIVER, S-9, AROCLOR 1254 (10%), Method: PREINCUBATION",inactive; negative
same,mutagenic call,"Test System: AMES SALMONELLA TYPHIMURIUM, Strain/Indicator: TA1537, Metabolic Activation: NONE, Method: PREINCUBATION",inactive; negative
same,mutagenic call,"Test System: AMES SALMONELLA TYPHIMURIUM, Strain/Indicator: TA1537, Metabolic Activation: RAT LIVER S-9, PHENOBARBITAL AND BETA-NAPHTHOFLAVONE, Method: PREINCUBATION",inactive; negative
same,mutagenic call,"Test System: AMES SALMONELLA TYPHIMURIUM, Strain/Indicator: TA1537, Metabolic Activation: RAT, LIVER, S-9, AROCLOR 1254 (10%), Method: PREINCUBATION",inactive; negative
same,mutagenic call,"Test System: E.COLI, Strain/Indicator: WP2UVRA/PKM101, Metabolic Activation: NONE, Method: PREINCUBATION",inactive; negative
same,mutagenic call,"Test System: E.COLI, Strain/Indicator: WP2UVRA/PKM101, Metabolic Activation: RAT LIVER S-9, PHENOBARBITAL AND BETA-NAPHTHOFLAVONE, Method: PREINCUBATION",inactive; negative
COP(=S)(OC)Oc1nc(Cl)c(Cl)cc1Cl,mutagenic call,"Test System: AMES SALMONELLA TYPHIMURIUM, Strain/Indicator: TA98, Metabolic Activation: NONE",inactive; negative
same,mutagenic call,"Test System: AMES SALMONELLA TYPHIMURIUM, Strain/Indicator: TA98, Metabolic Activation: RAT, LIVER, S-9, AROCLOR 1254",inactive; negative
same,mutagenic call,"Test System: AMES SALMONELLA TYPHIMURIUM, Strain/Indicator: TA100, Metabolic Activation: NONE",inactive; negative
same,mutagenic call,"Test System: AMES SALMONELLA TYPHIMURIUM, Strain/Indicator: TA100, Metabolic Activation: RAT, LIVER, S-9, AROCLOR 1254",inactive; negative
same,mutagenic call,"Test System: AMES SALMONELLA TYPHIMURIUM, Strain/Indicator: TA102, Metabolic Activation: NONE",inactive; negative
same,mutagenic call,"Test System: AMES SALMONELLA TYPHIMURIUM, Strain/Indicator: TA102, Metabolic Activation: RAT, LIVER, S-9, AROCLOR 1254",inactive; negative
same,mutagenic call,"Test System: AMES SALMONELLA TYPHIMURIUM, Strain/Indicator: TA1535, Metabolic Activation: NONE",inactive; negative
same,mutagenic call,"Test System: AMES SALMONELLA TYPHIMURIUM, Strain/Indicator: TA1535, Metabolic Activation: RAT, LIVER, S-9, AROCLOR 1254",inactive; negative
same,mutagenic call,"Test System: AMES SALMONELLA TYPHIMURIUM, Strain/Indicator: TA1537, Metabolic Activation: NONE",inactive; negative
same,mutagenic call,"Test System: AMES SALMONELLA TYPHIMURIUM, Strain/Indicator: TA1537, Metabolic Activation: RAT, LIVER, S-9, AROCLOR 1254",inactive; negative

# From PubChem BioAssay AID1259407 (Chemical Carcinogenesis Research Information System (CCRIS), 2018)
